Calls of active or inactive are those of the source. No cut-off for these calls is given here.
How the values were obtained:
[1] = system: Plasmodium falciparum; assay: Antiplasmodial activity against asexual blood-stage (ABS) CQ-sensitive Plasmodium falciparum D6 infected in human erythrocytes assessed as reduction in fluorescence measured after 72 hrs by Malaria SYBR Green I-based Fluorescence (MSF) assay; type: functional, organism-based; settings: D6, Erythrocyte
[2] = in vitro; settings: human, liver microsomes
[3] = Selectivity index, ratio of CC50 for Macaca mulatta hepatocytes to IC50 for antiplasmodial activity against schizont Plasmodium cynomolgi B strain infected in Macaca mulatta hepatocytes incubated with sporozoite containing salivary gland homogenate obtained from dissected Anopheles dirus mosquitoes (infected with Plasmodium cynomolgi B strain) treatment started on day 4 post infection and continued daily for 4 days into fresh changed media until day 8 assessed as Liver stage (LS) activity by measuring prophylactic mode by immunofluorescent staining analysis; type: toxicity, cell-based; settings: rhesus monkey, read-out: Selectivity Index
[4] = Selectivity index, ratio of CC50 for Macaca mulatta hepatocytes to IC50 for antiplasmodial activity against hypnozoite Plasmodium cynomolgi B strain infected in Macaca mulatta hepatocytes incubated with sporozoite containing salivary gland homogenate obtained from dissected Anopheles dirus mosquitoes (infected with Plasmodium cynomolgi B strain) treatment started on day 4 post infection and continued daily for 4 days into fresh changed media until day 8 assessed as Liver stage (LS) activity by measuring prophylactic mode by immunofluorescent staining analysis; type: toxicity, cell-based; settings: rhesus monkey, read-out: Selectivity Index
[5] = (§1) Cytotoxicity against Macaca mulatta hepatocytes assessed as cell viability measured after 48 hrs by MTT assay; type: toxicity, cell-based, Hepatocyte; settings: rhesus monkey
[6] = system: Plasmodium cynomolgi; assay: Antiplasmodial activity against schizont Plasmodium cynomolgi B strain infected in Macaca mulatta hepatocytes incubated with sporozoite containing salivary gland homogenate obtained from dissected Anopheles dirus mosquitoes (infected with Plasmodium cynomolgi B strain) treatment started on day 4 post infection and continued daily for 4 days into fresh changed media until day 8 assessed as Liver stage (LS) activity by measuring prophylactic mode by immunofluorescent staining analysis; type: functional, organism-based; settings: Hepatocyte
[7] = system: Plasmodium cynomolgi; assay: Antiplasmodial activity against hypnozoite Plasmodium cynomolgi B strain infected in Macaca mulatta hepatocytes incubated with sporozoite containing salivary gland homogenate obtained from dissected Anopheles dirus mosquitoes (infected with Plasmodium cynomolgi B strain) treatment started on day 4 post infection and continued daily for 4 days into fresh changed media until day 8 assessed as Liver stage (LS) activity by measuring radical cure mode by immunofluorescent staining analysis; type: functional, organism-based; settings: Hepatocyte
[8] = system: Plasmodium cynomolgi; assay: Antiplasmodial activity against schizont Plasmodium cynomolgi B strain infected in Macaca mulatta hepatocytes incubated with sporozoite containing salivary gland homogenate obtained from dissected Anopheles dirus mosquitoes (infected with Plasmodium cynomolgi B strain) treatment started on day 4 post infection and continued daily for 4 days into fresh changed media until day 8 assessed as Liver stage (LS) activity by measuring radical cure mode by immunofluorescent staining analysis; type: functional, organism-based; settings: Hepatocyte
[9] = system: HepG2; assay: Cytotoxicity against human HepG2 cells assessed as cell viability measured after 48 hrs by MTT assay; type: functional, cell-based; settings: HepG2, 48 h
[10] = system: Plasmodium cynomolgi; assay: Antiplasmodial activity against hypnozoite Plasmodium cynomolgi B strain infected in Macaca mulatta hepatocytes incubated with sporozoite containing salivary gland homogenate obtained from dissected Anopheles dirus mosquitoes (infected with Plasmodium cynomolgi B strain) treatment started on day 4 post infection and continued daily for 4 days into fresh changed media until day 8 assessed as Liver stage (LS) activity by measuring prophylactic mode by immunofluorescent staining analysis; type: functional, organism-based; settings: Hepatocyte
[11] = system: Plasmodium falciparum; assay: Antiplasmodial activity against asexual blood-stage (ABS) MDR Plasmodium falciparum Dd2 infected in human erythrocytes assessed as reduction in fluorescence measured after 72 hrs by Malaria SYBR Green I-based Fluorescence (MSF) assay; type: functional, organism-based; settings: Dd2, Erythrocyte
[12] = mouse, microsomes, 1 h
[13] = system: Plasmodium falciparum; assay: Antiplasmodial activity against asexual blood-stage (ABS) ATV-resistant clinical isolate Plasmodium falciparum Tm90-C2B infected in human erythrocytes assessed as reduction in fluorescence measured after 72 hrs by Malaria SYBR Green I-based Fluorescence (MSF) assay; type: functional, organism-based; settings: Erythrocyte
[14] = system: Plasmodium yoelii; assay: In vivo antiplasmodial activity against asexual blood-stage (ABS) Plasmodium yoelii MRA-428 infected in 4-day suppression CF1 mouse model assessed as reduction in parasitemia by measuring cured mouse at 80 mg/kg, po treated 24 hrs post infection daily for 4 days; type: functional, organism-based
[15] = system: Plasmodium yoelii; assay: In vivo antiplasmodial activity against asexual blood-stage (ABS) Plasmodium yoelii MRA-428 infected in 4-day suppression CF1 mouse model assessed as reduction in parasitemia treated 24 hrs post infection daily measured on day 4; type: functional
[16] = system: Hepatocyte; assay: as §1; type: toxicity, cell-based; settings: rhesus monkey, 48 h
[17] = Toxicity in CF1 mouse infected with asexual blood-stage (ABS) Plasmodium yoelii MRA-428 assessed as clinical toxicity at 0.3 to 30 mg/kg, po treated 24 hrs post infection measured after 4 days; type: organism-based; settings: in vivo, dose 0.3-30 mg/kg
[18] = Toxicity in CF1 mouse infected with asexual blood-stage (ABS) Plasmodium yoelii MRA-428 assessed as behavioural change at 0.3 to 30 mg/kg, po treated 24 hrs post infection measured after 4 days; type: organism-based; settings: in vivo, dose 0.3-30 mg/kg
[19] = system: Plasmodium yoelii; assay: In vivo antiplasmodial activity against asexual blood-stage (ABS) Plasmodium yoelii MRA-428 infected in 4-day suppression CF1 mouse model assessed as reduction in parasitemia by measuring protection at 10 mg/kg, po treated 24 hrs post infection daily for 4 days relative to control; type: functional; set-up: scale not given: the % may be the effect or the level left
[20] = system: Plasmodium yoelii; assay: In vivo antiplasmodial activity against asexual blood-stage (ABS) Plasmodium yoelii MRA-428 infected in 4-day suppression CF1 mouse model assessed as reduction in parasitemia by measuring cured mouse at 60 mg/kg, po single dose treated 24 hrs post infection; type: functional, organism-based
[21] = system: Plasmodium yoelii; assay: In vivo antiplasmodial activity against asexual blood-stage (ABS) Plasmodium yoelii MRA-428 infected in 4-day suppression CF1 mouse model assessed as reduction in parasitemia by measuring cured mouse at 100 mg/kg, po single dose treated 24 hrs post infection; type: functional, organism-based
[22] = Selectivity index, ratio of CC50 for Macaca mulatta hepatocytes to IC50 for antiplasmodial activity against schizont Plasmodium cynomolgi B strain infected in Macaca mulatta hepatocytes incubated with sporozoite containing salivary gland homogenate obtained from dissected Anopheles dirus mosquitoes (infected with Plasmodium cynomolgi B strain) treatment started on day 4 post infection and continued daily for 4 days into fresh changed media until day 8 assessed as Liver stage (LS) activity by measuring radical cure mode by immunofluorescent staining analysis; type: toxicity, cell-based; settings: rhesus monkey, read-out: Selectivity Index
[23] = Selectivity index, ratio of CC50 for Macaca mulatta hepatocytes to IC50 for antiplasmodial activity against hypnozoite Plasmodium cynomolgi B strain infected in Macaca mulatta hepatocytes incubated with sporozoite containing salivary gland homogenate obtained from dissected Anopheles dirus mosquitoes (infected with Plasmodium cynomolgi B strain) treatment started on day 4 post infection and continued daily for 4 days into fresh changed media until day 8 assessed as Liver stage (LS) activity by measuring radical cure mode by immunofluorescent staining analysis; type: toxicity, cell-based; settings: rhesus monkey, read-out: Selectivity Index
[24] = human, microsomes, 1 h
[25] = system: Plasmodium yoelii; assay: In vivo antiplasmodial activity against asexual blood-stage (ABS) Plasmodium yoelii MRA-428 infected in 4-day suppression CF1 mouse model assessed as reduction in parasitemia by measuring protection at 30 mg/kg, po treated 24 hrs post infection daily measured up to 28 days; type: functional, organism-based; settings: time <= 28.0 day
[26] = system: Plasmodium yoelii; assay: In vivo antiplasmodial activity against asexual blood-stage (ABS) Plasmodium yoelii MRA-428 infected in 4-day suppression CF1 mouse model assessed as reduction in parasitemia by measuring cured mouse at 100 mg/kg, po treated 24 hrs post infection daily for 4 days; type: functional, organism-based
[27] = AUCextrap in male ICR-CD1 mouse liver at 80 mg/kg, po; type: ADME, organism-based
[28] = AUC(0 to infinity) in male ICR-CD1 mouse liver at 80 mg/kg, po; type: ADME, organism-based
[29] = Tmax in male ICR-CD1 mouse plasma at 80 mg/kg, po; type: ADME, organism-based
[30] = system: Plasmodium berghei; assay: In vivo antiplasmodial activity against luciferase expressing liver stage Plasmodium berghei ANKA MRA-868 sporozoites infected in Albino C57BL/6 mouse model assessed as protection at 10 mg/kg, po daily measured 24 to 72 hrs by real-time In Vivo Imaging System (IVIS); type: functional; settings: time lower 24.0 hrs, time upper […]
[31] = Half life in male ICR-CD1 mouse liver at 80 mg/kg, po; type: ADME, organism-based
[32] = Apparent oral clearance in male ICR-CD1 mouse liver at 80 mg/kg, po; type: ADME, organism-based
[33] = AUClast in male ICR-CD1 mouse liver at 80 mg/kg, po; type: ADME, organism-based
[34] = system: Plasmodium falciparum; assay: Ex vivo antiplasmodial activity against clinical isolate Plasmodium falciparum isolated from Ugandan measured after 72 hrs by growth inhibition assay; type: functional, organism-based
[35] = Cmax in male ICR-CD1 mouse liver at 80 mg/kg, po; type: ADME, organism-based
[36] = system: Plasmodium berghei; assay: In vivo antiplasmodial activity against luciferase expressing liver stage Plasmodium berghei ANKA MRA-868 sporozoites infected in Albino C57BL/6 mouse model assessed as protection at 4 mg/kg, po daily measured 24 to 72 hrs by real-time In Vivo Imaging System (IVIS); type: functional, organism-based; settings: time lower 24.0 hrs, time upper […]
[37] = AUCextrap in male ICR-CD1 mouse plasma at 80 mg/kg, po; type: ADME, organism-based

SMILES | IC50 [1] | half-life at 1 h [2] | selectivity ratio at 96 h [3] | selectivity ratio at 96 h [4] | CC50 at 48 h [5] | IC50 [6] | IC50 [7] | IC50 [8] | IC50 [9] | IC50 [10] | IC50 [11] | CLH [12] | IC50 [13] | ED90 [15] | CC50 [16] | Activity [17] | Activity [18] | selectivity ratio at 96 h [22] | selectivity ratio at 96 h [23] | t1/2 [24] | other results
O=c1c2ccc(Oc3cccc(C(F)(F)F)c3)cc2[nH]c2cc(F)c(Cl)cc12 | 5.19 nM | > 60 min | > 55.6 | > 14.4 | > 20 µM | 360 nM | > 20 µM | > 20 µM | > 200 µM | 1390 nM | 3.87 nM | 14.2 µL/min/mg | 59.4 nM | – | – | – | – | – | – | – | –
O=c1c2ccc(Oc3cccc(OC(F)(F)F)c3)cc2[nH]c2cc(F)c(Cl)cc12 | 3.57 nM | > 60 min | > 167 | > 23 | > 20 µM | 120 nM | > 20 µM | > 20 µM | > 200 µM | 870 nM | 3.15 nM | < 3.125 µL/min/mg | 61.2 nM | – | – | – | – | – | – | – | –
O=c1c2cc(Oc3ccc(OC(F)(F)F)cc3)ccc2[nH]c2cc(Cl)cc(F)c12 | 4.18 nM | – | > 667 | > 60.6 | – | 30 nM | > 20 µM | > 20 µM | > 200 µM | 330 nM | 4.27 nM | 45.4 µL/min/mg | 599 nM | 1.98 mg/kg | > 20 µM | Non-toxic | Non-toxic | – | – | – | Activity [14]: Active
O=c1c2ccc(Oc3ccc(OC(F)(F)F)cc3)cc2[nH]c2ccc(F)c(Cl)c12 | 1.03 nM | – | 111 | 16.7 | – | 80 nM | 6.75 µM | 3.45 µM | > 200 µM | 530 nM | 0.84 nM | 11.6 µL/min/mg | 52.8 nM | 0.33 mg/kg | 8.87 µM | Non-toxic | Non-toxic | 2.57 | 1.31 | > 60 min | ED50 [15]: 0.29 mg/kg; Activity [19]: 100%; Activity [20]: Active; Activity [21]: Active
O=c1c2ccc(OCc3cccc(OC(F)(F)F)c3)cc2[nH]c2cc(Cl)cc(F)c12 | 0.077 nM | – | 165 | 12.6 | – | 20 nM | 0.71 µM | 0.62 µM | > 200 µM | 250 nM | 0.01 nM | 57.4 µL/min/mg | 0.977 nM | – | 3.31 µM | Non-toxic | Non-toxic | 5.34 | 4.66 | > 60 min | Activity [25]: Active; Out Of 4 - 3 Mouse Cured; Activity [26]: Active
O=c1c2cc(F)c(Oc3ccc(OC(F)(F)F)cc3)cc2[nH]c2cc(Cl)cc(F)c12 | 0.00074 nM | – | 14.5 | 3.62 | – | 40 nM | 0.56 µM | 0.34 µM | > 200 µM | 160 nM | 0.00042 nM | 16.1 µL/min/mg | 0.475 nM | 0.3 mg/kg | 0.58 µM | Non-toxic | Non-toxic | 1.71 | 1.04 | > 60 min | ED50 [15]: 0.16 mg/kg; AUC [27]: 3.14%; AUC(0-inf) [28]: 41300 ng·h/mL; Tmax [29]: 4 h; Activity [30]: Not active; Out Of 5 - 0 Mouse Cured; half-life [31]: 1250 min; CL/F [32]: 1.05 mL/min/kg; AUC(0-t) [33]: 40000 ng·h/mL; IC50 [34]: 0.957 nM; Cmax [35]: 7980 ng/mL; Activity [36]: Not active; Out Of 5 - 0 Mouse Cured; AUC [37]: 64.6 ng·h/mL

— ChEMBL document CHEMBL6134844, “Development of Next-Generation Antimalarial Acridones with Radical Cure Potential” (J Med Chem, 2025)
